Active and inactive are the calls of the source. No cut-off for these calls is given here.
Experiments:
[1] = test system: Trypanosoma brucei brucei; experiment: Antitrypanosomal activity against bloodstream trypomastigote form of Trypanosoma brucei brucei 65.3 […] after 72 hrs by Alamar Blue assay; format: functional, cell-based; details: Trypanosoma brucei, 65.3, 72 h
518A2 [2] = experiment: Antiproliferative activity against human 518A2 cells after 72 hrs by MTT assay; format: functional, cell-based; details: 518A2, 72 h
HCT-116 = experiment: Antiproliferative activity against human HCT116 cells after 72 hrs by MTT assay; format: functional, cell-based; details: HCT-116, 72 h
PANC-1 = experiment: Antiproliferative activity against human PANC1 cells after 72 hrs by MTT assay; format: functional, cell-based; details: PANC-1, 72 h
518A2 [3] = experiment: Induction of reactive oxygen species generation in human 518A2 cells at 0.1 uM after 24 hrs by NBT assay relative to control; format: functional
KB-V1 = experiment: Antiproliferative activity against vinblastine-resistant human KBV1 cells after 72 hrs by MTT assay; format: functional, cell-based; details: KB-V1, 72 h
[4] = test system: Trypanosoma brucei brucei; experiment: Antitrypanosomal activity against bloodstream trypomastigote form of Trypanosoma brucei brucei 65.3 assessed as deformation of microtubule cytoskeleton at 10 uM after 3 to 6 hrs by DAPI staining-based fluorescence microscopic method; format: functional
518A2 [5] = experiment: Induction of reactive oxygen species generation in human 518A2 cells at 0.5 uM after 24 hrs by NBT assay relative to control; format: functional
Entamoeba histolytica [6] = experiment: Antiamoebic activity against Entamoeba histolytica assessed as growth inhibition at 200 ug/ml after 48 hrs by trypan blue dye-based hemocytometer relative to control; format: functional; details: read-out: GI
Entamoeba histolytica [7] = experiment: Antiamoebic activity against Entamoeba histolytica assessed as growth inhibition at 200 ug/ml after 24 hrs by trypan blue dye-based hemocytometer relative to control; format: functional; details: read-out: GI
Entamoeba histolytica [8] = experiment: Antiamoebic activity against Entamoeba histolytica assessed as growth inhibition at 200 ug/ml after 72 hrs by trypan blue dye-based hemocytometer relative to control; format: functional; details: read-out: GI
MDA-MB-231 [9] = experiment: Antiproliferative activity against human MDA-MB-231 cells at <25 uM after 96 hrs by MTT assay; format: functional, cell-based
PC-3 [10] = experiment: Antiproliferative activity against human PC3 cells at <25 uM after 96 hrs by MTT assay; format: functional, cell-based
BXPC-3 [11] = experiment: Antiproliferative activity against human BxPC3 cells at <25 uM after 96 hrs by MTT assay; format: functional, cell-based
[12] = test system: Trypanosoma brucei brucei; experiment: Antitrypanosomal activity against bloodstream trypomastigote form of Trypanosoma brucei brucei 65.3 assessed as decrease in parasite motility at 1 uM after 0.5 to 24 hrs by DAPI staining-based fluorescence microscopic method relative to control; format: functional
[13] = test system: Trypanosoma brucei brucei; experiment: Antitrypanosomal activity against bloodstream trypomastigote form of Trypanosoma brucei brucei 65.3 assessed as cell debris of dead and lysed parasite at 10 uM after 12 to 24 hrs by DAPI staining-based fluorescence microscopic method; format: functional
HeLa [14] = experiment: Cytotoxicity against human HeLa cells assessed as effect on cell viability at 10 uM after 1 to 9 hrs by DAPI staining-based fluorescence microscopic method
HeLa [15] = experiment: Cytotoxicity against human HeLa cells assessed as effect on cytoskeleton at 10 uM after 1 to 9 hrs by DAPI staining-based fluorescence microscopic method; format: cell-based
[16] = test system: Trypanosoma brucei brucei; experiment: Antitrypanosomal activity against bloodstream trypomastigote form of Trypanosoma brucei brucei 65.3 assessed as deformation of microtubule cytoskeleton at 1 uM after 0.5 to 24 hrs by DAPI staining-based fluorescence microscopic method; format: functional
BXPC-3 [17] = experiment: Antiproliferative activity against human BxPC3 cells at 1 to 50 uM after 96 hrs by MTT assay; format: functional, cell-based
PC-3 [18] = experiment: Antiproliferative activity against human PC3 cells at 1 to 50 uM after 96 hrs by MTT assay; format: functional, cell-based
MDA-MB-231 [19] = experiment: Antiproliferative activity against human MDA-MB-231 cells at 1 to 50 uM after 96 hrs by MTT assay; format: functional, cell-based

Structure (SMILES)	IC50 [1] [nM]	IC50 (HCT-116) [µM]	IC50 (PANC-1) [µM]	IC50 (KB-V1) [nM]	IC50 (518A2 [2]) [nM]	Activity (518A2 [3]) [%]	Activity (518A2 [5]) [%]	further results
Cc1ncc([N+](=O)[O-])n1CCO [METRONIDAZOLE]								inhibition of growth at 200 µg/mL (Entamoeba histolytica [6]): 58.7%; inhibition of growth at 200 µg/mL (Entamoeba histolytica [7]): 54.1%; inhibition of growth at 200 µg/mL (Entamoeba histolytica [8]): 60.4%
CCCCCCCNC(C1=C(O)C(=O)c2ccccc2C1=O)c1ccc(O)c(OC)c1 (stereo unspecified)								growth inhibition (GI) (MDA-MB-231 [9]): inactive; growth inhibition (GI) (PC-3 [10]): inactive; growth inhibition (GI) (BXPC-3 [11]): inactive
COc1cc(C(NCc2ccccn2)C2=C(O)C(=O)c3ccccc3C2=O)ccc1O (stereo unspecified)								growth inhibition (GI) (MDA-MB-231 [9]): inactive; growth inhibition (GI) (PC-3 [10]): inactive; growth inhibition (GI) (BXPC-3 [11]): inactive
N=C(N)c1ccc(OCCCCCOc2ccc(C(=N)N)cc2)cc1 [PENTAMIDINE]	5							
O=C1C(O)=C(C(NCc2ccccn2)c2ccccn2)C(=O)c2ccccc21 (stereo unspecified)		6.77	17.6	8610	6980			

Now from value to molecule, other results behind:

IC50 [1] [nM]	IC50 (HCT-116) [µM]	IC50 (PANC-1) [µM]	IC50 (KB-V1) [nM]	Structure (SMILES)	IC50 (518A2 [2]) [nM]	Activity (518A2 [3]) [%]	Activity (518A2 [5]) [%]	further results
3730	6.39	6.41	410	CCCCCCCNC(C1=C(O)C(=O)c2ccccc2C1=O)c1ccccn1 (stereo unspecified)	2580	50	70	Activity [4]: inactive
350	2.41	3.93	430	CCCCCCCCCCCCCCNC(C1=C(O)C(=O)c2ccccc2C1=O)c1ccccn1 (stereo unspecified)	3030	50	70	Activity [12]: Active; Activity [13]: Active; Activity (HeLa [14]): Non-Toxic; Activity (HeLa [15]): Non-Toxic; Activity [16]: Active; growth inhibition (GI) (BXPC-3 [17]): Active; growth inhibition (GI) (PC-3 [18]): Active; growth inhibition (GI) (MDA-MB-231 [19]): Active
646	3.46	1.79	320	CCCCCCCCCCCCNC(C1=C(O)C(=O)c2ccccc2C1=O)c1ccccn1 (stereo unspecified)	2570	50	70	Activity [12]: Active; Activity (HeLa [14]): Non-Toxic; Activity (HeLa [15]): Non-Toxic; Activity [16]: Active; growth inhibition (GI) (BXPC-3 [17]): Active; growth inhibition (GI) (PC-3 [18]): Active; growth inhibition (GI) (MDA-MB-231 [19]): Active

Source: ChEMBL document CHEMBL4002569, “Improved anticancer and antiparasitic activity of new lawsone Mannich bases” (Eur J Med Chem, 2017)
